Some test systems named below: HCC-2998 colon; COLO 205 colon; SNB-75 CNS; RPMI-8226 leukemia; EKVX NSCLC; MDA-MB-435; MDA-N; PC-3 prostate; NCI-H226 lung; NCI-H522 lung; RXF 393 renal; MOLT-4 leukemia; NCI-H460 lung; KM12 colon; HT29 colon; SR leukemia; UACC-257 melanoma; DU-145 prostate; SK-OV-3 ovarian.
Test in all cases: NCI tumour cell line growth inhibition, 48 h

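Values below derive from 48-hour exposures of cells grown in 96-well plates, with endpoints linearly interpolated between the two concentrations bracketing the appropriate inhibition level. At the TGI there is no net growth.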

Turning to `Cc1sc2nc3n(c(=O)c2c1C)N=CN(c1ccc(Cl)cc1)C3`, the TGI with HCC-2998 colon, in the test on COLO 205 colon, with SNB-75 CNS, in the test with RPMI-8226 leukemia, in the test on EKVX NSCLC and in the test on MDA-MB-435 was > 100 µM in each case. Further, the TGI in the test on MDA-N, in the test with PC-3 prostate, in the test on NCI-H226 lung, in the test with NCI-H522 lung, with RXF 393 renal and in the test on MOLT-4 leukemia was > 100 µM throughout. The TGI with NCI-H460 lung, in the test with KM12 colon, with HT29 colon, in the test on SR leukemia, in the test with UACC-257 melanoma and in the test with DU-145 prostate was > 100 µM each time. Besides, the TGI with SK-OV-3 ovarian was > 100 µM.

In the case of `O=C1OC([C@H](O)c2cccnc2)c2ccccc21` (stereo not given in full), the TGI with HCC-2998 colon, in the test on COLO 205 colon, with SNB-75 CNS, with RPMI-8226 leukemia, with EKVX NSCLC and in the test on MDA-MB-435 was > 10 µM each time. For the same compound, the TGI in the test with MDA-N, with PC-3 prostate, in the test on NCI-H226 lung, in the test on NCI-H522 lung, in the test with RXF 393 renal and with MOLT-4 leukemia was > 10 µM throughout. Moreover, the TGI with NCI-H460 lung, with KM12 colon, with HT29 colon, with SR leukemia, in the test with UACC-257 melanoma and in the test with DU-145 prostate was > 10 µM in each case. The TGI in the test on SK-OV-3 ovarian was > 10 µM.

As to `COc1cc2cc(C(=O)N3CC(CCl)c4ccc([N+](C)(C)Cc5ccccc5[N+](=O)[O-])cc43)[nH]c2c(OC)c1OC` (stereo not given), the TGI with HCC-2998 colon is 9 µM; with COLO 205 colon, 14.9 µM; in the test on SNB-75 CNS, 24.7 µM; in the test on RPMI-8226 leukemia, 5.3 µM; in the test on EKVX NSCLC it was 21.3 µM; in the test on MDA-MB-435 it was 5.17 µM. Also, the TGI came out at 6.49 µM in the test on MDA-N; 25.9 µM in the test with PC-3 prostate; 19.5 µM with NCI-H226 lung; 0.677 µM with NCI-H522 lung; 2.11 µM in the test on RXF 393 renal; 2.74 µM in the test with MOLT-4 leukemia. Moreover, the TGI in the test with KM12 colon is 10.2 µM; with HT29 colon it was > 21.8 µM; in the test on SR leukemia, 4.39 µM; in the test with UACC-257 melanoma, 6.75 µM; in the test with DU-145 prostate, > 100 µM; in the test on SK-OV-3 ovarian it was 30.1 µM.

As to `COC(=O)c1ccc2c(c1)CC1(C2)Cc2ccccc2C1=O` (stereo not given), the TGI in the test with HCC-2998 colon was > 100 µM; with COLO 205 colon, 42.4 µM; in the test on SNB-75 CNS it was 67.3 µM; in the test with RPMI-8226 leukemia, 38 µM; with EKVX NSCLC it was 88.1 µM; in the test with MDA-MB-435, 58.5 µM. Also, the TGI was 59.8 µM in the test on MDA-N; > 100 µM in the test with PC-3 prostate; 52.7 µM in the test on NCI-H226 lung; > 100 µM in the test on NCI-H522 lung; > 100 µM with RXF 393 renal; 34.4 µM in the test on MOLT-4 leukemia. Also, the TGI in the test on NCI-H460 lung is > 100 µM; in the test with HT29 colon, 36 µM; in the test with SR leukemia it was 65.7 µM; in the test on UACC-257 melanoma, 35.2 µM; in the test on DU-145 prostate it was > 100 µM; with SK-OV-3 ovarian it was > 100 µM.

For `O=C1NCN(c2ccccc2)C12CCN(CC1COc3ccccc3O1)CC2` (stereo not given), the TGI with HCC-2998 colon is > 100 µM; in the test with COLO 205 colon, > 100 µM; with SNB-75 CNS, 71.4 µM; in the test on RPMI-8226 leukemia, > 100 µM; in the test on EKVX NSCLC, 98.2 µM; in the test with MDA-MB-435, > 100 µM. Also, the TGI with MDA-N was > 100 µM; in the test with PC-3 prostate, > 100 µM; with NCI-H226 lung, > 100 µM; in the test on NCI-H522 lung, > 100 µM; in the test with RXF 393 renal it was 96.5 µM; in the test on MOLT-4 leukemia, > 100 µM. Besides, the TGI in the test with NCI-H460 lung, with HT29 colon, in the test with SR leukemia, in the test with UACC-257 melanoma, with DU-145 prostate and in the test with SK-OV-3 ovarian was > 100 µM each time.

On to `O=[N+]([O-])c1ccc(-c2nn3c(C45CC6CC(CC(C6)C4)C5)nnc3s2)c(Cl)c1`, for which the TGI with HCC-2998 colon, in the test on COLO 205 colon, in the test on SNB-75 CNS, in the test on RPMI-8226 leukemia, with EKVX NSCLC and in the test on MDA-MB-435 was > 100 µM throughout. Also, the TGI with MDA-N, in the test with PC-3 prostate, in the test with NCI-H226 lung, in the test with NCI-H522 lung, in the test with RXF 393 renal and with MOLT-4 leukemia was > 100 µM each time. Also, the TGI with NCI-H460 lung, in the test on KM12 colon, with HT29 colon, with SR leukemia, with DU-145 prostate and in the test on SK-OV-3 ovarian was > 100 µM throughout.

(Values after PubChem BioAssay (NCI).)
